The subject of assay [1] is CCNK. Put plainly: CCNK degradation (DC50, Dmax). The format is cell-based. The following applies: for Dmax (%): CCNK degradation.
Assay [2] has as its target CDK12 (Homo sapiens, UniProt Q9NYV4). Put plainly: Inhibition of cyclin-dependent kinase 12 (% enzyme activity at 1 uM and IC50). The format is biochemical. Particulars: for remaining activity at 1 µM: 1 uM compound.
The test system of assay [3] is MDA-MB-231 cell line. Put plainly: Antiproliferative activity, MDA-MB-231 cell line (GI50). Type of assay: cell-based. The following applies: Homo sapiens.

CDK12, sequence (Q9NYV4 whole entry): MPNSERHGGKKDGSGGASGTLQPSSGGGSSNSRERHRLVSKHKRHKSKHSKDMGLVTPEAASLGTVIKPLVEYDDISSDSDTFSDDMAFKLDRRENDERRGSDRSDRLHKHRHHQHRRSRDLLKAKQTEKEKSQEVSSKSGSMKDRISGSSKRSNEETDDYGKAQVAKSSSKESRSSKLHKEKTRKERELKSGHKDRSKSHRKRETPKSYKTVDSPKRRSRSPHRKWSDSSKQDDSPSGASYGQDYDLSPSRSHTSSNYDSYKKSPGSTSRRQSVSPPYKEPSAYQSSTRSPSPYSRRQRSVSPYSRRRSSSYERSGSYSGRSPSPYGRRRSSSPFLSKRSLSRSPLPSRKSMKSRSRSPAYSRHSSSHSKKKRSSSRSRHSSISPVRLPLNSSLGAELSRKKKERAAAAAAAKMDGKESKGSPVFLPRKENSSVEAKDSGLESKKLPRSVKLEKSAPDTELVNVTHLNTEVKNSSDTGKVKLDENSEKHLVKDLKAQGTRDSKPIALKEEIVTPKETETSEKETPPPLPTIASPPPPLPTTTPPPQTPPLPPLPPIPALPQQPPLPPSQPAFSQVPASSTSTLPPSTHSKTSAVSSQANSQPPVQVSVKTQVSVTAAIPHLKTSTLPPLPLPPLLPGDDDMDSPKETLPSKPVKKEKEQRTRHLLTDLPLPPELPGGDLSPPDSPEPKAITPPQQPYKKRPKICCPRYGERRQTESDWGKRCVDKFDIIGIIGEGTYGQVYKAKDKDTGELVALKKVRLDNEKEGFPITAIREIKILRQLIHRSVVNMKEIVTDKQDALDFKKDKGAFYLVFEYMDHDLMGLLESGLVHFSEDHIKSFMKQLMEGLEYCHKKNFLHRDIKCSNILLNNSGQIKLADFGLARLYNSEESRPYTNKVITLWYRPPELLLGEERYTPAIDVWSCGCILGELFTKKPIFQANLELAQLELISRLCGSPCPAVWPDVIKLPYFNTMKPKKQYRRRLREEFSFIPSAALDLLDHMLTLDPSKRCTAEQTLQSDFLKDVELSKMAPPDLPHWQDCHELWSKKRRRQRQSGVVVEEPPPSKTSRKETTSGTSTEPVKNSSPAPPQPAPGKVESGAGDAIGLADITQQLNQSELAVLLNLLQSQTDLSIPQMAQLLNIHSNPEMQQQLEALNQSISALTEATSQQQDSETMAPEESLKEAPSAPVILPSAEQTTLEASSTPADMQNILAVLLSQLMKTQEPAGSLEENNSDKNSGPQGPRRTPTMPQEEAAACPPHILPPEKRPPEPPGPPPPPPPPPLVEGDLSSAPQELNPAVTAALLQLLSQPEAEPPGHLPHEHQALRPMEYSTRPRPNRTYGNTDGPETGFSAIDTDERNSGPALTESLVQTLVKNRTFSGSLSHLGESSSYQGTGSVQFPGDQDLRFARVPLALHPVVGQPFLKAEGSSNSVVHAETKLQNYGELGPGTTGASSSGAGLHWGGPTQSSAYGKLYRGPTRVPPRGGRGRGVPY
CDK12, sequence (O75909 whole entry partner): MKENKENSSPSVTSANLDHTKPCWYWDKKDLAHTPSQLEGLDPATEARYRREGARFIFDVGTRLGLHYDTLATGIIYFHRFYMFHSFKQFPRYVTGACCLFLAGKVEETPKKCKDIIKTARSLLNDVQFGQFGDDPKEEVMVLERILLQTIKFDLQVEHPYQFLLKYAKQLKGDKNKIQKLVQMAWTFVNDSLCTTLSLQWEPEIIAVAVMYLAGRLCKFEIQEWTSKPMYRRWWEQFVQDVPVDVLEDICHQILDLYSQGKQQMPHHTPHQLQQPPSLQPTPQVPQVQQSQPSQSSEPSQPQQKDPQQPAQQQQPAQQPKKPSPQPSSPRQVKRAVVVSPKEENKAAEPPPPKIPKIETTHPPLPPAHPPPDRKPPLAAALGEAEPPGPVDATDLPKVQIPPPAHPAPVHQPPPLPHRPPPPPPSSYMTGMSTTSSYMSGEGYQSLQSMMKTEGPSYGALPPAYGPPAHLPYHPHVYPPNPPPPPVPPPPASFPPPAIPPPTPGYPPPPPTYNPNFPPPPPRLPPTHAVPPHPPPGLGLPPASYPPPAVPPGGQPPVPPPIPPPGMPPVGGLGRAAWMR

For the compound `CN1CCN(c2cc(NCc3nc4c(F)c(F)ccc4[nH]3)c3ncc(-c4cnn(C)c4)n3n2)CC1` [Cmpd 5, N-((4,5-difluoro-1H-benzo[d]imidazol-2-yl)methyl)-3-(1-methyl-1H-pyrazol-4-yl)-6-(4-methylpiperazin-1-yl) imidazo[1,2-b]pyridazin-8-amine], in assay [1], half-maximal degradation (DC50) was put at 1300 nM and the “Dmax (%)” value amounted to 65%. For the same compound, in assay [2], the concentration for half-maximal inhibition (IC50) (as a rule, the concentration that gives 50% inhibition) was 3000 nM. Besides, in assay [3], halving of growth (GI50) required 4280 nM.

For the compound `Cn1cc(-c2cnc3c(NCc4nc5c(F)c(F)ccc5[nH]4)cc(N4CCOCC4)nn23)cn1` [Cmpd 6, N-((4,5-difluoro-1H-benzo[d]imidazol-2-yl)methyl)-3-(1-methyl-1H-pyrazol-4-yl)-6-morpholinoimidazo[1,2-b]pyridazin-8-amine], in assay [1], the DC50 (as a rule, the midpoint of the concentration-degradation curve) came out at 460 nM and the “Dmax (%)” value amounted to 75%. In assay [2], this compound registered a concentration for half-maximal inhibition (IC50) of 3000 nM. For the same compound, the GI50 (commonly the concentration that inhibits growth by half) in assay [3] was 3840 nM.

Take `CN1CCN(c2cc(NCc3nc4cc(Cl)c(Cl)cc4[nH]3)c3ncc(-c4cnn(C)c4)n3n2)CC1` [Cmpd 8, N-((5,6-dichloro-1H-benzo[d]imidazol-2-yl)methyl)-3-(1-methyl-1H-pyrazol-4-yl)-6-(4-methylpiperazin-1-yl) imidazo[1,2-b]pyridazin-8-amine]: in assay [1], it took 1300 nM to reach half-maximal degradation (DC50) and the “Dmax (%)” value was 100%. The same compound returned a half-maximal inhibitory concentration (IC50) in assay [2] of 10000 nM. In addition, in assay [3], growth was halved (GI50) at 424 nM.

Take `Cn1cc(-c2cnc3c(NCc4nc5cc(Cl)c(Cl)cc5[nH]4)cc(N4CCOCC4)nn23)cn1` [Cmpd 9, N-((5,6-dichloro-1H-benzo[d]imidazol-2-yl)methyl)-3-(1-methyl-1H-pyrazol-4-yl)-6-morpholinoimidazo[1,2-b]pyridazin-8-amine]: in assay [1], the half-maximal degradation concentration (DC50) was determined as 680 nM and the “Dmax (%)” value amounted to 95%. In assay [2], this compound showed an IC50 of 9560 nM. The same compound came in with a GI50 in assay [3] of 564 nM.

With `Cc1ccnc2[nH]c(CNc3cc(N4CCN(C)CC4)nn4c(-c5cnn(C)c5)cnc34)nc12` [Cmpd 11, 3-(1-methyl-1H-pyrazol-4-yl)-N-((7-methyl-3H-imidazo[4,5-b]pyridin-2-yl)methyl)-6-(4-methylpiperazin-1-yl) imidazo[1,2-b]pyridazin-8-amine], in assay [1], the DC50 is 5600 nM and the “Dmax (%)” value is 60%. Besides, in assay [2], 1000 nM corresponded to half-maximal inhibition (IC50). The same compound had a GI50 in assay [3] of 7930 nM.

With `Cc1ccnc2[nH]c(CNc3cc(N4CCOCC4)nn4c(-c5cnn(C)c5)cnc34)nc12` [Cmpd 12, 3-(1-methyl-1H-pyrazol-4-yl)-N-((7-methyl-3H-imidazo[4,5-b]pyridin-2-yl)methyl)-6-morpholinoimidazo[1,2-b]pyridazin-8-amine], in assay [1], the DC50 turned out to be 2100 nM and the “Dmax (%)” value was 65%. Also, half-maximal inhibition in assay [2] (IC50) was put at 1000 nM. Further, in assay [3], growth was halved (GI50) at 5690 nM.

In assay [1], `CC(C)n1cc(-c2cnc3c(NCc4nc5cc(Cl)c(Cl)cc5[nH]4)cc(N4CCN(C)CC4)nn23)cn1` [Cmpd 14, N-((5,6-dichloro-1H-benzo[d]imidazol-2-yl)methyl)-3-(1-isopropyl-1H-pyrazol-4-yl)-6-(4-methylpiperazin-1-yl) imidazo[1,2-b]pyridazin-8-amine] came in with a DC50 of 10000 nM. In addition, in assay [2], the IC50 stood at 5000 nM and the remaining activity – broadly, the signal under treatment as a percentage of the control signal – at 1 µM is 84%. The compound further registered a concentration for 50% growth inhibition (GI50) in assay [3] of 1770 nM.

Turning to `CC(C)n1cc(-c2cnc3c(NCc4nc5cc(Cl)c(Cl)cc5[nH]4)cc(N4CCOCC4)nn23)cn1` [Cmpd 15, N-((5,6-dichloro-1H-benzo[d]imidazol-2-yl)methyl)-3-(1-isopropyl-1H-pyrazol-4-yl)-6-morpholinoimidazo[1,2-b]pyridazin-8-amine], in assay [1], half-maximal degradation (DC50) was put at 2100 nM and the “Dmax (%)” value came out at 65%. Further, in assay [2], it took 3000 nM to reach half-maximal inhibition (IC50) and the remaining activity at 1 µM was 68%. This compound came in with a GI50 in assay [3] of 4110 nM.

Turning to `CC(C)n1cc(-c2cnc3c(NCc4nc5cccc(Cl)c5[nH]4)cc(N4CCN(C)CC4)nn23)cn1` [Cmpd 17, N-((7-chloro-1H-benzo[d]imidazol-2-yl)methyl)-3-(1-isopropyl-1H-pyrazol-4-yl)-6-(4-methylpiperazin-1-yl) imidazo[1,2-b]pyridazin-8-amine], in assay [1], it took 10000 nM to reach half-maximal degradation (DC50). In assay [2], this compound gave a 50% inhibitory concentration (IC50) of 919 nM and a remaining activity at 1 µM of 45%. In assay [3], this compound showed a GI50 of 5600 nM.

Consider `CC(C)n1cc(-c2cnc3c(NCc4nc5cccc(Cl)c5[nH]4)cc(N4CCOCC4)nn23)cn1` [Cmpd 18, N-((7-chloro-1H-benzo[d]imidazol-2-yl)methyl)-3-(1-isopropyl-1H-pyrazol-4-yl)-6-morpholinoimidazo[1,2-b]pyridazin-8-amine], for which, in assay [1], the half-maximal degradation concentration (DC50) turned out to be 1800 nM and the “Dmax (%)” value is listed as 70%. In assay [2], this compound returned an IC50 of 997 nM and a remaining activity at 1 µM of 48%. For the same compound, in assay [3], the GI50 came to 9920 nM.

Turning to `Cc1ccnc2[nH]c(CNc3cc(N4CCN(C)CC4)nn4c(-c5cnn(C(C)C)c5)cnc34)nc12` [Cmpd 20, 3-(1-isopropyl-1H-pyrazol-4-yl)-N-((7-methyl-3H-imidazo[4,5-b]pyridin-2-yl)methyl)-6-(4-methylpiperazin-1-yl) imidazo[1,2-b]pyridazin-8-amine], the half-maximal degradation concentration (DC50) in assay [1] turned out to be 10000 nM. In assay [2], the IC50 was 531 nM and the remaining activity at 1 µM is 30%. This compound also gave a GI50 in assay [3] of 6670 nM.

In assay [1], `Cc1ccnc2[nH]c(CNc3cc(N4CCOCC4)nn4c(-c5cnn(C(C)C)c5)cnc34)nc12` [Cmpd 21, 3-(1-isopropyl-1H-pyrazol-4-yl)-N-((7-methyl-3H-imidazo[4,5-b]pyridin-2-yl)methyl)-6-morpholinoimidazo[1,2-b]pyridazin-8-amine] gave a DC50 of 10000 nM. Further, in assay [2], the concentration for half-maximal inhibition (IC50) came to 722 nM and the remaining activity at 1 µM worked out at 34%. The same compound registered a GI50 in assay [3] of 10000 nM.

In turn, `CC(C)n1cc(-c2cnc3c(NCc4nc5c(F)c(F)ccc5[nH]4)cc(N4CCN(C)CC4)nn23)cn1` [Cmpd 23, N-((4,5-difluoro-1H-benzo[d]imidazol-2-yl)methyl)-3-(1-isopropyl-1H-pyrazol-4-yl)-6-(4-methylpiperazin-1-yl) imidazo[1,2-b]pyridazin-8-amine] displayed a DC50 in assay [1] of 10000 nM. Also, in assay [2], the half-maximal inhibitory concentration (IC50) worked out at 1110 nM and the remaining activity at 1 µM amounted to 53%. The compound further showed a GI50 in assay [3] of 5180 nM.

For `CC(C)n1cc(-c2cnc3c(NCc4nc5c(F)c(F)ccc5[nH]4)cc(N4CCOCC4)nn23)cn1` [Cmpd 24, N-((4,5-difluoro-1H-benzo[d]imidazol-2-yl)methyl)-3-(1-isopropyl-1H-pyrazol-4-yl)-6-morpholinoimidazo[1,2-b]pyridazin-8-amine], in assay [1], the DC50 turned out to be 2100 nM and the “Dmax (%)” value came out at 65%. Further, in assay [2], the concentration for half-maximal inhibition (IC50) turned out to be 1270 nM and the remaining activity at 1 µM is 60%. Also, the 50% growth inhibitory concentration (GI50) in assay [3] was 10000 nM.

`CC(C)n1cc(-c2cnc3c(NCc4nc5c(F)cccc5[nH]4)cc(N4CCN(C)CC4)nn23)cn1` [Cmpd 26, N-((4-fluoro-1H-benzo[d]imidazol-2-yl)methyl)-3-(1-isopropyl-1H-pyrazol-4-yl)-6-(4-methylpiperazin-1-yl) imidazo[1,2-b]pyridazin-8-amine] gave a 50% degradation concentration (DC50) in assay [1] of 10000 nM. In assay [2], this compound returned an IC50 of 1110 nM and a remaining activity at 1 µM of 53%. In assay [3], it took 6070 nM to inhibit growth by half (GI50).

Turning to `CC(C)n1cc(-c2cnc3c(NCc4nc5c(F)cccc5[nH]4)cc(N4CCOCC4)nn23)cn1` [Cmpd 27, N-((4-fluoro-1H-benzo[d]imidazol-2-yl)methyl)-3-(1-isopropyl-1H-pyrazol-4-yl)-6-morpholinoimidazo[1,2-b]pyridazin-8-amine], in assay [1], the 50% degradation concentration (DC50) amounted to 1600 nM and the “Dmax (%)” value is recorded as 50%. For the same compound, in assay [2], the midpoint of inhibition, the IC50, lay at 1080 nM and the remaining activity at 1 µM came out at 52%. In assay [3], this compound displayed a GI50 of 10000 nM.

The compound `CN1CCN(c2cc(NCc3nc4cc(Cl)c(Cl)cc4[nH]3)c3ncc(-c4cnn(C5CC5)c4)n3n2)CC1` [Cmpd 29, 3-(1-cyclopropyl-1H-pyrazol-4-yl)-N-((5,6-dichloro-1H-benzo[d]imidazol-2-yl)methyl)-6-(4-methylpiperazin-1-yl) imidazo[1,2-b]pyridazin-8-amine] registered a 50% degradation concentration (DC50) in assay [1] of 10000 nM. This compound also displayed a remaining activity at 1 µM in assay [2] of 81%. The compound also gave a GI50 in assay [3] of 1120 nM.

Consider `Clc1cc2nc(CNc3cc(N4CCOCC4)nn4c(-c5cnn(C6CC6)c5)cnc34)[nH]c2cc1Cl` [Cmpd 30, 3-(1-cyclopropyl-1H-pyrazol-4-yl)-N-((5,6-dichloro-1H-benzo[d]imidazol-2-yl)methyl)-6-morpholinoimidazo[1,2-b]pyridazin-8-amine], for which, in assay [1], the DC50 turned out to be 3000 nM and the “Dmax (%)” value is 70%. In assay [2], this compound returned a remaining activity at 1 µM of 83%. In assay [3], the GI50 was 2120 nM.

Turning to `CN1CCN(c2cc(NCc3nc4cccc(Cl)c4[nH]3)c3ncc(-c4cnn(C5CC5)c4)n3n2)CC1` [Cmpd 32, N-((7-chloro-1H-benzo[d]imidazol-2-yl)methyl)-3-(1-cyclopropyl-1H-pyrazol-4-yl)-6-(4-methylpiperazin-1-yl) imidazo[1,2-b]pyridazin-8-amine], in assay [1], it took 1400 nM to reach half-maximal degradation (DC50) and the “Dmax (%)” value came to 50%. In assay [2], this compound gave an IC50 of 2080 nM and a remaining activity at 1 µM of 45%. This compound also returned a 50% growth inhibitory concentration (GI50) in assay [3] of 4430 nM.

Regarding `CN1CCN(c2cc(NCc3nc4cc(Cl)c(Cl)cc4[nH]3)c3ncc(-c4cnn(C(F)F)c4)n3n2)CC1(C)C` [Cmpd 49, N-((5,6-dichloro-1H-benzo[d]imidazol-2-yl)methyl)-3-(1-(difluoromethyl)-1H-pyrazol-4-yl)-6-(3,3,4-trimethylpiperazin-1-yl) imidazo[1,2-b]pyridazin-8-amine], in assay [1], the half-maximal degradation concentration (DC50) was found to be 370 nM and the “Dmax (%)” value is recorded as 95%. The compound further had a concentration for 50% growth inhibition (GI50) in assay [3] of 465 nM.

As for `CN(C)c1cc(NCc2nc3cccc(Cl)c3[nH]2)c2ncc(-c3ccsc3)n2n1` [Cmpd 73, N8-((7-chloro-1H-benzo[d]imidazol-2-yl)methyl)-N6,N6-dimethyl-3-(thiophen-3-yl) imidazo[1,2-b]pyridazine-6,8-diamine], in assay [2], half-maximal inhibition (IC50) required 1000 nM. This compound also yielded a 50% growth inhibitory concentration (GI50) in assay [3] of 5000 nM.

The values above are taken from patent publication US20260055114A1, “IMIDAZO[1,2-B]PYRIDAZINE INHIBITORS OF CYCLIN-DEPENDENT KINASES” (H. LEE MOFFITT CANCER CENTER AND RESEARCH INSTITUTE, INC., priority 2022, published 2026).
